SMILES strings stand for the structures.

Test [1] deals with T1, Mitogen-activated protein kinase kinase kinase 5 (Homo sapiens) (UniProt Q99683).
T1 sequence (whole entry): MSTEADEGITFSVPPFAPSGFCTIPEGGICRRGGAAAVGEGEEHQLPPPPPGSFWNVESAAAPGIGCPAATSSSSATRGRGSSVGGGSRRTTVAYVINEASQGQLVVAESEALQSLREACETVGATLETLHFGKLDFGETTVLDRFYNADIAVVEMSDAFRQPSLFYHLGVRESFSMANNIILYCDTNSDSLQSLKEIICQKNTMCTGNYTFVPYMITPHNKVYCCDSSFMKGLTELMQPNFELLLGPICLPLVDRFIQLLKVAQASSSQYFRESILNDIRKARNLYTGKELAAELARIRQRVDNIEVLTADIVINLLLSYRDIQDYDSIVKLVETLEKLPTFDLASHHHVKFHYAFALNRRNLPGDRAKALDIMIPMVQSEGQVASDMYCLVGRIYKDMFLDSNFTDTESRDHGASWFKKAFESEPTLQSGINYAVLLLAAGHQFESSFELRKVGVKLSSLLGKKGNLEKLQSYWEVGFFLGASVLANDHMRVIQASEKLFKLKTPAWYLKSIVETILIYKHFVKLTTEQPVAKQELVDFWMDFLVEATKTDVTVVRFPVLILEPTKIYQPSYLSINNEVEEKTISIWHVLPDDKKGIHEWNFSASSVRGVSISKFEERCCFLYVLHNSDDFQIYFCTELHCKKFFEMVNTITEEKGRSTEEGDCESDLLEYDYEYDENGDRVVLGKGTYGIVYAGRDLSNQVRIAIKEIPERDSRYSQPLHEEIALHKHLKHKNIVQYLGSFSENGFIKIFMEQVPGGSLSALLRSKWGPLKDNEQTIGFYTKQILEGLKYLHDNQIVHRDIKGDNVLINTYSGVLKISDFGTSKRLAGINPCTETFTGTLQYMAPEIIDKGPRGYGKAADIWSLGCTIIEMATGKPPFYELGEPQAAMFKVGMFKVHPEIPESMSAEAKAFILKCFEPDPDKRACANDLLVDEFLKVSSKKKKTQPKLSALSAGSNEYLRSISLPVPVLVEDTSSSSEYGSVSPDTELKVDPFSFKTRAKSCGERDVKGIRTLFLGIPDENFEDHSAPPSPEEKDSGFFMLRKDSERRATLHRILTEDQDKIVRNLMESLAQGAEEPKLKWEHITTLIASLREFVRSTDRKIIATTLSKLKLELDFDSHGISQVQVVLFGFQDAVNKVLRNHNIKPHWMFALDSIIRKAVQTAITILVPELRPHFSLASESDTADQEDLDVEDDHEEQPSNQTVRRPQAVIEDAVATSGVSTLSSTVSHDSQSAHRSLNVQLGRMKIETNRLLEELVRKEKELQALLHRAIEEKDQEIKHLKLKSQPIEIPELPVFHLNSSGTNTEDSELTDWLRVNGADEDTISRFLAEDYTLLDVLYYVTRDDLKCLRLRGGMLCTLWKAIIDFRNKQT
Description: Inhibition of human ASK1 at 1.82 nM by HotSpot assay relative to control.

The target of test [2] is Calcium/calmodulin-dependent protein kinase type 1G (Homo sapiens) (UniProt Q96NX5). Description: Inhibition of human CAMK1g at 1.82 nM by HotSpot assay relative to control.
Calcium/calmodulin-dependent protein kinase type 1G (Homo sapiens), sequence (Q96NX5 whole entry): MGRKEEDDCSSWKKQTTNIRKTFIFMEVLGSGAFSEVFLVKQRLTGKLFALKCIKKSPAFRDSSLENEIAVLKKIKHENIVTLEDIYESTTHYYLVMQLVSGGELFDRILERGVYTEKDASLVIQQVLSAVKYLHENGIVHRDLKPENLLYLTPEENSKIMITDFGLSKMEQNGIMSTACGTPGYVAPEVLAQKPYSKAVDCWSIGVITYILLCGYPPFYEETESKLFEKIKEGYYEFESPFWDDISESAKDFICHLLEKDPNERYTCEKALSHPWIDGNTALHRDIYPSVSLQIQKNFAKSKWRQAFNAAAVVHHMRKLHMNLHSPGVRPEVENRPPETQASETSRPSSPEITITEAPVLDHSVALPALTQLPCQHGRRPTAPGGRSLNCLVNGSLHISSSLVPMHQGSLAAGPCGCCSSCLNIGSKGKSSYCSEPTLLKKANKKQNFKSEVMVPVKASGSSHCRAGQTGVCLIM
Test [3] deals with Mitogen-activated protein kinase 9 (Homo sapiens) (UniProt P45984). Description: Inhibition of human JNK2 at 1.82 nM by HotSpot assay relative to control.
Mitogen-activated protein kinase 9 (Homo sapiens), sequence (P45984 whole entry, looked up): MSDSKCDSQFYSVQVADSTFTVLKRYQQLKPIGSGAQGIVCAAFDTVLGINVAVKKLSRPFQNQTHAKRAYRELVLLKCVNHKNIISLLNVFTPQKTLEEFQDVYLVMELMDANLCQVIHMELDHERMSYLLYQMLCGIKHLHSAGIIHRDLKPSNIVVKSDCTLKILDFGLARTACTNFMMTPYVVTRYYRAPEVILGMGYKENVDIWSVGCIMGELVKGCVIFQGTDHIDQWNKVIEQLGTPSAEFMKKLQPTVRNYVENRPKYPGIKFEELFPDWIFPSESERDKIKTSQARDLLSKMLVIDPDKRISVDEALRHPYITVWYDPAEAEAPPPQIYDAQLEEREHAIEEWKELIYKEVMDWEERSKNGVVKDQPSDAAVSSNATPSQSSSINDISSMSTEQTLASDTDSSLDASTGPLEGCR
Test [4] deals with T2, Aurora kinase C (Homo sapiens) (UniProt Q9UQB9).
T2 sequence (whole entry): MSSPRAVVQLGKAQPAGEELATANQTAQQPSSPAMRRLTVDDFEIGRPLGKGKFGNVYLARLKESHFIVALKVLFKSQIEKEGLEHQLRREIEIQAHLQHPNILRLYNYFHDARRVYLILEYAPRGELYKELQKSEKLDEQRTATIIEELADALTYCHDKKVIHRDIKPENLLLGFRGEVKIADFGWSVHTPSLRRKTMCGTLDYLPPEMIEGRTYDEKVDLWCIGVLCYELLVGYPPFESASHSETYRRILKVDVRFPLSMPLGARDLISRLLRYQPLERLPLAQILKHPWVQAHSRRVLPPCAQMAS
Description: Inhibition of human Aurora C at 18.6 nM by HotSpot assay relative to control.

Test [5] deals with Cyclin-dependent kinase 5/CDK5 activator 1 (Homo sapiens) (UniProt Q00535+Q15078). Description: Inhibition of human CDK5/p35 at 18.6 nM by HotSpot assay relative to control. It is filed as protein-complex assay.
Cyclin-dependent kinase 5/CDK5 activator 1 (Homo sapiens), sequence (Q00535 whole entry): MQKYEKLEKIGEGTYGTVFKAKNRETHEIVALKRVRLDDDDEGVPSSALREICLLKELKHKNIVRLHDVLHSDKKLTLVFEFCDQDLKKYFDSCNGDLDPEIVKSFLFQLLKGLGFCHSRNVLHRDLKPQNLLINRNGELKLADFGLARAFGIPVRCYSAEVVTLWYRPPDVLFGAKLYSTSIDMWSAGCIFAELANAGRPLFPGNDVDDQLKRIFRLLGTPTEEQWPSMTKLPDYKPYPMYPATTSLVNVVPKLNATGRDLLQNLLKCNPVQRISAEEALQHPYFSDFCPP
Cyclin-dependent kinase 5/CDK5 activator 1 (Homo sapiens), sequence (Q15078 99-307 partner limits assumed): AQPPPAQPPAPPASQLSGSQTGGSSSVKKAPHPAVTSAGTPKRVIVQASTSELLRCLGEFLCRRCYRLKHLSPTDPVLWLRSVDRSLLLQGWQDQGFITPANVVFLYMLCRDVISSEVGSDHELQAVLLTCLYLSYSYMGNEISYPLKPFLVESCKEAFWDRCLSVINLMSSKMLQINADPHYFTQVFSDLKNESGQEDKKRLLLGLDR
Test [6] deals with Cyclin-dependent kinase 7/ cyclin H (Homo sapiens) (UniProt P51946+P50613). Description: Inhibition of human CDK7/cyclin H at 18.6 nM by HotSpot assay relative to control. The test is classed as protein-complex assay.
Test [7] deals with Focal adhesion kinase 1 (Homo sapiens) (UniProt Q05397). Description: Inhibition of human FAK at 18.6 nM by HotSpot assay relative to control.
Focal adhesion kinase 1 (Homo sapiens), sequence (Q05397 2-1052 limits assumed): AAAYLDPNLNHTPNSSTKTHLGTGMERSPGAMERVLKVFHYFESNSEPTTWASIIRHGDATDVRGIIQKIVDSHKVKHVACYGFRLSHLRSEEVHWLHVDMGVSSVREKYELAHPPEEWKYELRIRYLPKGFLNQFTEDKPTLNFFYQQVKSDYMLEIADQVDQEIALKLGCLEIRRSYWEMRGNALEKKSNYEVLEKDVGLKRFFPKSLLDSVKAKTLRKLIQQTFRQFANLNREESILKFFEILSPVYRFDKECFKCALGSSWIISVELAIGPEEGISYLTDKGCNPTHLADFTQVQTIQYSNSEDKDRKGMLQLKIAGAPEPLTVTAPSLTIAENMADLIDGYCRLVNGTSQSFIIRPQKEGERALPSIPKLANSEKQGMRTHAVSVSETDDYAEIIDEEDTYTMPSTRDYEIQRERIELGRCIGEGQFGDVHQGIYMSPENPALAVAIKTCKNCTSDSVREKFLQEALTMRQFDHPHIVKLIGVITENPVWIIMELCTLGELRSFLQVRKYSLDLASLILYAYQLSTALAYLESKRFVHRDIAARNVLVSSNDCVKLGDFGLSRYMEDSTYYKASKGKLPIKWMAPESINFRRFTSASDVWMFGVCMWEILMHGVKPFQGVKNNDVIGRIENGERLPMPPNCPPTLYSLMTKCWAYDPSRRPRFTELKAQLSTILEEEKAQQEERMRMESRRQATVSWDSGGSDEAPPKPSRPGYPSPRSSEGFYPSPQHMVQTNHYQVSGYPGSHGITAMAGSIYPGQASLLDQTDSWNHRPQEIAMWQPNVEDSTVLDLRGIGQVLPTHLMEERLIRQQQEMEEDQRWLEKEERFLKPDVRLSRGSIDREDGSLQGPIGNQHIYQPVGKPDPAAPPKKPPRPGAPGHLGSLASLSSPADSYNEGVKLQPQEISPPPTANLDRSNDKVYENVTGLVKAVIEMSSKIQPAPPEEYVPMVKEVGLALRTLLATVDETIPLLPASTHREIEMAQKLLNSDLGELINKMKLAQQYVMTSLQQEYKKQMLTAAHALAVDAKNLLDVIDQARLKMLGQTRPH
The target of test [8] is Homeodomain-interacting protein kinase 1 (Homo sapiens) (UniProt Q86Z02). Description: Inhibition of human HIPK1 at 18.6 nM by HotSpot assay relative to control.
Homeodomain-interacting protein kinase 1 (Homo sapiens), sequence (Q86Z02 whole entry, looked up): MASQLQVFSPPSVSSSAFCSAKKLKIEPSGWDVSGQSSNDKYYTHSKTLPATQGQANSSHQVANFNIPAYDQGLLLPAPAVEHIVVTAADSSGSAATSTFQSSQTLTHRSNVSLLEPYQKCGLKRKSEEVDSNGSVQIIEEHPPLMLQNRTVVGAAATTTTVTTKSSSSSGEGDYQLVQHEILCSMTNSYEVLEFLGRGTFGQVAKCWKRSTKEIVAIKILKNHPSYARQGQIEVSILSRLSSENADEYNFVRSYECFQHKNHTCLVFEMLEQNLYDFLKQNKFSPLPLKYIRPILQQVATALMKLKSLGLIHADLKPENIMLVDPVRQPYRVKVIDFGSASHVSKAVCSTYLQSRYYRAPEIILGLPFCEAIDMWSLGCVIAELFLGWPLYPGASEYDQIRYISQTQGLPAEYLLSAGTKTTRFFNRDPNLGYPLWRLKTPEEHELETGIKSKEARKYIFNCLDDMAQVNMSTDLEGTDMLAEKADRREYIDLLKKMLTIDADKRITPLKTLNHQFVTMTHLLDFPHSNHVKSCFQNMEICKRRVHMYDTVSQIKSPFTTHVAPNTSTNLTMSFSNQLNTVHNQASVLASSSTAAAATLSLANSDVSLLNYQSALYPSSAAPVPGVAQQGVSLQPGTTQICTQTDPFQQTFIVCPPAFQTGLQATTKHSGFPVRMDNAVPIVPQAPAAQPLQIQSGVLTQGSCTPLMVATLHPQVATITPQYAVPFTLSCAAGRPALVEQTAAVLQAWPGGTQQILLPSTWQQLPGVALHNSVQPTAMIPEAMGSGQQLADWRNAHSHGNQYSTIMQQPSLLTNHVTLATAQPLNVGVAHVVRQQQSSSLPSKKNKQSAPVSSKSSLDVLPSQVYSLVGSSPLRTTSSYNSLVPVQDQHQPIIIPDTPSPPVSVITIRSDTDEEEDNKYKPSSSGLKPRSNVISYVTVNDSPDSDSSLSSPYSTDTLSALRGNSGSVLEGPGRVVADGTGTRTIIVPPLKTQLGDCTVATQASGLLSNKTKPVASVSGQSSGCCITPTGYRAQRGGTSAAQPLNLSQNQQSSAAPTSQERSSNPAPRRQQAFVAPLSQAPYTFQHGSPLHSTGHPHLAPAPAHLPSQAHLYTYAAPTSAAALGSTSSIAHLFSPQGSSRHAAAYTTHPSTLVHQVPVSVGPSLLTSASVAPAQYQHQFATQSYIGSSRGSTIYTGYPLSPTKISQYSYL
The target in test [9] is Mitogen-activated protein kinase kinase kinase 9 (Homo sapiens) (UniProt P80192). Description: Inhibition of human MAP3K9 at 18.6 nM by HotSpot assay relative to control.
For test [10], the target named is Serine/threonine-protein kinase 16 (Homo sapiens) (UniProt O75716). Description: Inhibition of human STK16 at 18.6 nM by HotSpot assay relative to control.
Serine/threonine-protein kinase 16 (Homo sapiens), sequence (O75716 whole entry): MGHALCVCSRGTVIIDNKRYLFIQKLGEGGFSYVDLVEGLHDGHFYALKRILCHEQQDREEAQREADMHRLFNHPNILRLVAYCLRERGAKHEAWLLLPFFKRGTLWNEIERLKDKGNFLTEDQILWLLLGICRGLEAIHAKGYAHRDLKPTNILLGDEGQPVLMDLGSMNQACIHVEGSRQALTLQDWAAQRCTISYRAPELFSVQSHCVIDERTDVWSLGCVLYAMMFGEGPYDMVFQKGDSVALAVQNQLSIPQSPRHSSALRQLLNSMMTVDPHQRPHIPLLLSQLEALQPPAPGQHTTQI
The target in test [11] is Serine/threonine-protein kinase WNK3 (Homo sapiens) (UniProt Q9BYP7). Description: Inhibition of human WNK3 at 18.6 nM by HotSpot assay relative to control.
In test [12] the target is Serine/threonine-protein kinase OSR1 (Homo sapiens) (UniProt O95747). Description: Inhibition of human OXSR1 at 18.6 nM by HotSpot assay relative to control.
Serine/threonine-protein kinase OSR1 (Homo sapiens), sequence (O95747 whole entry, looked up): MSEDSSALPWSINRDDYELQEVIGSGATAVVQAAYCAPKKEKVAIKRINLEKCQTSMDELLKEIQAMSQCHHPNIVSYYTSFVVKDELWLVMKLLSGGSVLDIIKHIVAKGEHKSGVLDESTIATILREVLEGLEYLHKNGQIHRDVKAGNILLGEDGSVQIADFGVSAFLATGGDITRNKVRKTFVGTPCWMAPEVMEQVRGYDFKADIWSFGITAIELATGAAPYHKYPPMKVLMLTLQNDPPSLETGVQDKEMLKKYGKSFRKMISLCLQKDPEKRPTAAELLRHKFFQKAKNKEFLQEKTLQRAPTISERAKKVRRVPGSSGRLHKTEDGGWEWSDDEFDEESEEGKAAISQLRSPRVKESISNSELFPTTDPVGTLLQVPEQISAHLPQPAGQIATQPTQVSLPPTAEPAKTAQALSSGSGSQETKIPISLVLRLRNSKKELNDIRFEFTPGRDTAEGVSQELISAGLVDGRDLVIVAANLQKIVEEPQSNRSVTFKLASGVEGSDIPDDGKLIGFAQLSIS

What is called inhibition is the relative decrease from the control value, in per cent. With `C[C@@]1(C(=O)Nc2ccc(F)nc2)CCCN1c1nc(Nc2cc(C3CC3)n[nH]2)c2cccn2n1`, the inhibition in test [1] is -3.08%; in test [2] it was 7.27%; in test [3], -2.41%.
On to `C[C@]1(O)C[C@@H](c2nc(-c3ccc4ccc(-c5ccccc5)nc4c3)c3c(N)nccn32)C1`, for which the inhibition in test [4] was -7.85%; in test [5], -1.84%; in test [6], -4.42%; in test [7], 1.73%; in [8] it was -4.32%; in [9], -2.33%. The inhibition in [10] is -0.38%; in test [11], 6.05%; in test [12] it was -6.49%.

Values taken from ChEMBL document CHEMBL5653615 (J Biol Chem, 2013).
